Experimental data from paper PMC4171615, “Discovery of selective inhibitors of Glutaminase-2, which inhibit mTORC1, activate autophagy and inhibit proliferation in cancer cells” (Oncotarget, 2014).

Molecular target: T1, KGA_H519Q (Homo sapiens, UniProt O94925, H519Q)
T1 construct: a KGA cDNA fragment of 1644 bp (residues Leu123-Leu669); His-tag (N); made in house; host or cells: Escherichia coli
T1 sequence (O94925 123-669 H519Q): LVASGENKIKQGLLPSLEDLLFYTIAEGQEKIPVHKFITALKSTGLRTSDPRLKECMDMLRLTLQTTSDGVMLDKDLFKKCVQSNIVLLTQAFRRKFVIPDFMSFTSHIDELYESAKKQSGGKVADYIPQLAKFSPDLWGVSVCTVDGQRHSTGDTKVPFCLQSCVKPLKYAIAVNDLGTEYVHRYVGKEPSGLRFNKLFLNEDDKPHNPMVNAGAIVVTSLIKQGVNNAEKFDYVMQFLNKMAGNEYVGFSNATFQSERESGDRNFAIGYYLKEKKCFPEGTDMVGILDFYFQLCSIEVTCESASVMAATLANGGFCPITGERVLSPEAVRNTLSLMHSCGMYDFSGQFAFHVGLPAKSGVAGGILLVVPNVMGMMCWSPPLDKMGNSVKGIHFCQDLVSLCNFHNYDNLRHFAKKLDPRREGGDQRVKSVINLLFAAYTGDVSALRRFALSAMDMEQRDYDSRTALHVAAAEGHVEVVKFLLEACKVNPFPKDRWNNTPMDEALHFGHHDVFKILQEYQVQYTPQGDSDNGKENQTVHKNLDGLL
Experiment: Glutaminase activity assay, KGA mutant H519Q
Format: biochemical
Description: Human glutaminase activity was measured using a two-step assay as described previously. A microtiter assay format was used to facilitate the collection of multiple data points. Typically, 10 μl of compound, which was dissolved in DMSO, was added to 80 μl of an initial assay mix (0.1 mM hKGA, 0.2 mM EDTA and 50 mM Tris/acetate, pH 8.6). Samples were incubated at 25°C for 10 min and then 10 μl of 200 mM glutamine were added to the reaction mix. After adding glutamine, the reactions were incubated at 37°C for 60 min and then quenched by the addition of 10 μl of 0.6 M HCl. Subsequently, 100 μl of a second reaction mixture (3.7 units of purified bovine liver glutamate dehydrogenase, 160 mM Tris/acetate [pH 9.4], 400 mM hydrazine, 5 mM ADP and 2 mM NAD^+) was added to the stopped first reaction mixture and incubated for 30 min at 25°C. The absorbance at 340 nm was measured using a Wallac Victor2V plate reader (PerkinElmer), fitted with a 340 nm excitation filter. Sample absorbance was measured against a blank, containing no human glutaminase.
Site-directed mutagenesis was performed on the pET28a(+)-GAB or pET28a(+)-KGA plasmids using PfuUltra II Fusion HS DNA polymerase (Agilent Technologies) to create the GAB and KGA mutants. […] The sequence alignment was compared with crystal structure of the GAC (PDB code: 3UO9) and the resulting model of GAB was analyzed using the Swiss-PDB server. […]

IC50: 1670 ± 120 nM
Structure (SMILES): CCCCCCCCCCCCCC(CC1=CC(=O)C=C(OC)C1=O)OC(C)=O (stereo not shown) [AV-1]
